Experimental data: patent publication US12612407B2, “Imidazo[2,1-f][1,2,4]triazin-4-amine derivatives as TLR7 agonist” (BEIGENE, LTD., priority 2020, dated 2026)

Target: T1, human TLR7 (Homo sapiens, UniProt Q9NYK1)
T1 construct: host or cells: HEK293 (HEK-Blue hTLR7)
T1 sequence (Q9NYK1 27-1049): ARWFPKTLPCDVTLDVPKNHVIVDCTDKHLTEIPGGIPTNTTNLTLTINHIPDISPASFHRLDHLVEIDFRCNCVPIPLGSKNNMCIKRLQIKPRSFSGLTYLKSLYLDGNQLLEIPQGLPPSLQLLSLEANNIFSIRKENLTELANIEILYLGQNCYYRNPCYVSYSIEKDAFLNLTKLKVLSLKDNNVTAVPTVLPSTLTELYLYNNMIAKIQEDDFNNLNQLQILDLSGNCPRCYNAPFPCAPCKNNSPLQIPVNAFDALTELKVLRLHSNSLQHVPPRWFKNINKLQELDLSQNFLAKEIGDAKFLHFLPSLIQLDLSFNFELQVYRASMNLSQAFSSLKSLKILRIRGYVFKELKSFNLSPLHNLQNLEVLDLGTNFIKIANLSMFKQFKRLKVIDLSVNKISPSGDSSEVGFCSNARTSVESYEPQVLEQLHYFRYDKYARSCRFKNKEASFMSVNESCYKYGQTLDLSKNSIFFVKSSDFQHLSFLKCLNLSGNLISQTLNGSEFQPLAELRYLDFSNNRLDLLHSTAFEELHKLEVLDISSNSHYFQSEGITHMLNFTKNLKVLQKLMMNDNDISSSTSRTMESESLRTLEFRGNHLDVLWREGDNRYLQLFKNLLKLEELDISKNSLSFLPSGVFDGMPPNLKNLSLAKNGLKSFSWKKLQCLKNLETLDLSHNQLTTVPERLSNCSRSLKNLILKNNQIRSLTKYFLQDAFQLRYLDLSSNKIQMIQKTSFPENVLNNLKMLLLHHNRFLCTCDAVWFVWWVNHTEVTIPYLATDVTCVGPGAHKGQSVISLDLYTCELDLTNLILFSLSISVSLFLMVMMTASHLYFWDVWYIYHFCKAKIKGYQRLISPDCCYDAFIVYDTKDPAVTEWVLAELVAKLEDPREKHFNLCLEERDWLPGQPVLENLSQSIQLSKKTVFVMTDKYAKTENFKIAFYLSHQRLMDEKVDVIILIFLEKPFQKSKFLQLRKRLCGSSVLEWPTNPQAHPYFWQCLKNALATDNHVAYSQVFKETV
Assay: HEK293-Blue hTLR7 Reporter Assay (QUANTI-BLUE, SEAP readout)
Assay type: cell-based
Conditions: HEK-Blue-hTLR7 cells, 24 hrs treatment, Table 1, B1-B232
How it was run: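 HEK-Blue-hTLR7 cells expressing NF-κB/AP-1-driven SEAP, 4×10^4 cells/well, treated 24 h at 37° C with increasing compound concentrations. Supernatant SEAP measured with Quanti-blue substrate (10-30 min, 37° C) at 620-655 nm; EC50 from sigmoidal dose-response fit.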

Row | SMILES | EC50
1 | CCCC(CCC)Oc1nc(N)c2ncc(Cc3cnc(N4CCNCC4)c(C)c3)n2n1 [Compound B143, 2-(heptan-4-yloxy)-7-((5-methyl-6-(piperazin-1-yl)pyridin-3-yl)methyl)imidazo[2,1-f][1,2,4]triazin-4-amine] | 0.0078 µM
2 | CCC[C@@H](C)Nc1nc(N)c2ncc(Cc3cnc(N4CCC(CN(C)C)CC4)c(C)c3)n2n1 (single isomer, unassigned) [Compound B178] | 0.017 µM
3 | Cc1cc(Cc2cnc3c(N)nc(NCCC(C)C)nn23)cnc1N1CCNCC1 [Compound B85, N^2-isopentyl-7-((5-methyl-6-(piperazin-1-yl)pyridin-3-yl)methyl)imidazo[2,1-f][1,2,4]triazine-2,4-diamine] | 1.36 µM
4 | COc1nc(N)c2ncc(Cc3cnc(N4CCNCC4)c(C)c3)n2n1 [Compound B62, 2-methoxy-7-((5-methyl-6-(piperazin-1-yl)pyridin-3-yl)methyl)imidazo[2,1-f][1,2,4]triazin-4-amine] | > 10 µM
5 | Cc1cc(Cc2cnc3c(N)nc(OC(C)C)nn23)cnc1N1CCNCC1 [Compound B66, 2-isopropoxy-7-((5-methyl-6-(piperazin-1-yl)pyridin-3-yl)methyl)imidazo[2,1-f][1,2,4]triazin-4-amine] | 0.146 µM
6 | CCCCOc1nc(N)c2ncc(Cc3cnc(N4CC5(CCNCC5)C4)c(C)c3)n2n1 [Compound B102, 2-butoxy-7-((5-methyl-6-(2,7-diazaspiro[3.5]nonan-2-yl)pyridin-3-yl)methyl)imidazo[2,1-f][1,2,4]triazin-4-amine] | 0.464 µM
7 | CCCCOc1nc(N)c2ncc(Cc3cnc(N4CCN(C(=O)C5CNCCN5)CC4)c(C)c3)n2n1 (stereo not shown) [Compound B41, (4-(5-((4-amino-2-butoxyimidazo[2,1-f][1,2,4]triazin-7-yl)methyl)-3-methylpyridin-2-yl)piperazin-1-yl)(piperazin-2-yl)methanone] | 0.6 µM
8 | Cc1cc(Cc2cnc3c(N)nc(OCCOc4ccccc4)nn23)cnc1N1CCNCC1 [Compound B25, 7-((5-methyl-6-(piperazin-1-yl)pyridin-3-yl)methyl)-2-(2-phenoxyethoxy)imidazo[2,1-f][1,2,4]triazin-4-amine] | > 10 µM
9 | CCCCOc1nc(N)c2ncc(Cc3cnc(N4CCNCC4)c(OC)c3)n2n1 [Compound B11, 2-butoxy-7-((5-methoxy-6-(piperazin-1-yl)pyridin-3-yl)methyl)imidazo[2,1-f][1,2,4]triazin-4-amine] | 0.247 µM
10 | CC[C@H](O)CCOc1nc(N)c2ncc(Cc3cnc(N4CCNCC4)c(C)c3)n2n1 [Compound B217, (S)-1-((4-amino-7-((5-methyl-6-(piperazin-1-yl)pyridin-3-yl)methyl)imidazo[2,1-f][1,2,4]triazin-2-yl)oxy)pentan-3-ol] | 2.44 µM
11 | CCCC(C)Nc1nc(N)c2ncc(Cc3cnc(N4CCC(CN(C)C)CC4)c(C)c3)n2n1 (stereo not shown) [Compound B137, 7-((6-(4-((dimethylamino)methyl)piperidin-1-yl)-5-methylpyridin-3-yl)methyl)-N2-(pentan-2-yl)imidazo[2,1-f][1,2,4]triazine-2,4-diamine] | 0.0041 µM
12 | CCCCOc1nc(N)c2ncc(Cc3ccc(N4CC(C)NC(C)C4)c(C)c3)n2n1 (stereo not shown) [Compound B61, 2-butoxy-7-(4-(3,5-dimethylpiperazin-1-yl)-3-methylbenzyl)imidazo[2,1-f][1,2,4]triazin-4-amine] | 0.66 µM
13 | CC[C@@H](C)Oc1nc(N)c2ncc(Cc3cnc(N4CCNCC4)c(C)c3)n2n1 [Compound B152, (R)-2-(sec-butoxy)-7-((5-methyl-6-(piperazin-1-yl)pyridin-3-yl)methyl)imidazo[2,1-f][1,2,4]triazin-4-amine] | 0.056 µM
14 | CCCCOc1nc(N)c2ncc(Cc3cnc(N4CCC(CN(CC)CC)CC4)c(C)c3)n2n1 [Compound B126, 2-butoxy-7-((6-(4-((diethylamino)methyl)piperidin-1-yl)-5-methylpyridin-3-yl)methyl)imidazo[2,1-f][1,2,4]triazin-4-amine] | 0.022 µM
15 | CCCCOc1nc(N)c2ncc(Cc3cnc(N4CCC(OC)CC4)c(C)c3)n2n1 [Compound B103, 2-butoxy-7-((6-(4-methoxypiperidin-1-yl)-5-methylpyridin-3-yl)methyl)imidazo[2,1-f][1,2,4]triazin-4-amine] | 7.96 µM
16 | CCCCOc1nc(N)c2ncc(Cc3cnc(N4CCN(C(=O)[C@@H](N)Cc5ccccc5)CC4)c(C)c3)n2n1 [Compound B81, (S)-2-amino-1-(4-(5-((4-amino-2-butoxyimidazo[2,1-f][1,2,4]triazin-7-yl)methyl)-3-methylpyridin-2-yl)piperazin-1-yl)-3-phenylpropan-1-one] | 4.44 µM
17 | CCCC(CCO)Oc1nc(N)c2ncc(Cc3cnc(N4CCN(C(=O)CNC)CC4)c(C)c3)n2n1 (stereo not shown) [Compound B218, 1-(4-(5-((4-amino-2-((1-hydroxyhexan-3-yl)oxy)imidazo[2,1-f][1,2,4]triazin-7-yl)methyl)-3-methylpyridin-2-yl)piperazin-1-yl)-2-(methylamino)ethan-1-one] | 0.046 µM
18 | CCCCOc1nc(N)c2ncc(Cc3cnc(N4CCC(C(=O)N(C)C)CC4)c(C)c3)n2n1 [Compound B95, 1-(5-((4-amino-2-butoxyimidazo[2,1-f][1,2,4]triazin-7-yl)methyl)-3-methylpyridin-2-yl)-N,N-dimethylpiperidine-4-carboxamide] | 4.38 µM
19 | CCCC(CCC)Oc1nc(N)c2ncc(Cc3cnc(N4CCN(C(=O)CNC)CC4)c(C)c3)n2n1 [Compound B197, 1-(4-(5-((4-amino-2-(heptan-4-yloxy)imidazo[2,1-f][1,2,4]triazin-7-yl)methyl)-3-methylpyridin-2-yl)piperazin-1-yl)-2-(methylamino)ethan-1-one] | 0.0039 µM
20 | CCC[C@@H](CCO)Nc1nc(N)c2ncc(Cc3cnc(N4CCC(CNC)CC4)c(C)c3)n2n1 [Compound B228, (S)-3-((4-amino-7-((5-methyl-6-(4-((methylamino)methyl)piperidin-1-yl)pyridin-3-yl)methyl)imidazo[2,1-f][1,2,4]triazin-2-yl)amino)hexan-1-ol] | 0.037 µM
21 | CCCCOc1nc(N)c2ncc(Cc3cnc(C4CCNCC4)c(OC)c3)n2n1 [Compound B17, 2-butoxy-7-((5-methoxy-6-(piperidin-4-yl)pyridin-3-yl)methyl)imidazo[2,1-f][1,2,4]triazin-4-amine] | 0.149 µM
22 | CCCC(C)Nc1nc(N)c2ncc(Cc3cnc(N4CCN(C(=O)CNC)CC4)c(C)c3)n2n1 (stereo not shown) [Compound B149, 1-(4-(5-((4-amino-2-(pentan-2-ylamino)imidazo[2,1-f][1,2,4]triazin-7-yl)methyl)-3-methylpyridin-2-yl)piperazin-1-yl)-2-(methylamino)ethan-1-one] | 0.0063 µM
23 | CCCCOc1nc(N)c2ncc(Cc3cnc(N4CCOCC4)c(C)c3)n2n1 [Compound B52, 2-butoxy-7-((5-methyl-6-morpholinopyridin-3-yl)methyl)imidazo[2,1-f][1,2,4]triazin-4-amine] | > 10 µM
24 | CCCCOc1nc(N)c2ncc(Cc3ccc(N4CCNCC4)nc3)n2n1 [Compound B6, 2-butoxy-7-((6-(piperazin-1-yl)pyridin-3-yl)methyl)imidazo[2,1-f][1,2,4]triazin-4-amine] | 0.421 µM
25 | CCC[C@@H](C)Nc1nc(N)c2ncc(Cc3cnc(N4CCNCC4)c(C)c3)n2n1 (single isomer, unassigned) [Compound B207] | 0.056 µM
26 | COCCOCCOCCOCCOCCOCCOc1nc(N)c2ncc(Cc3cnc(N4CCNCC4)c(C)c3)n2n1 [Compound B120, 2-((2,5,8,11,14,17-hexaoxanonadecan-19-yl)oxy)-7-((5-methyl-6-(piperazin-1-yl)pyridin-3-yl)methyl)imidazo[2,1-f][1,2,4]triazin-4-amine] | > 10 µM
27 | CCC(CC)Oc1nc(N)c2ncc(Cc3cnc(N4CCNCC4)c(C)c3)n2n1 [Compound B162, 7-((5-methyl-6-(piperazin-1-yl)pyridin-3-yl)methyl)-2-(pentan-3-yloxy)imidazo[2,1-f][1,2,4]triazin-4-amine] | 0.008 µM
28 | CCCCOc1nc(N)c2ncc(Cc3cnc(N4CCC5(CCNC5)CC4)c(C)c3)n2n1 [Compound B82, 2-butoxy-7-((5-methyl-6-(2,8-diazaspiro[4.5]decan-8-yl)pyridin-3-yl)methyl)imidazo[2,1-f][1,2,4]triazin-4-amine] | 0.431 µM
